Data published in US8906914B2, “Ethylene diamine modulators of fatty acid hydrolase” (priority 2009, dated 2014).
Structures can show the parent of a compound that is named as a salt.

How the values were obtained:
FAAH = biological target: T1, FAAH (Homo sapiens, UniProt O00519); test: Human FAAH assay (Assay Method 1), 3H-anandamide hydrolysis in cell homogenate; format: biochemical; set-up: expressed in transfected cells; alternatively T84 frozen cell pellets (endogenous FAAH)
T1 sequence (O00519 1-579): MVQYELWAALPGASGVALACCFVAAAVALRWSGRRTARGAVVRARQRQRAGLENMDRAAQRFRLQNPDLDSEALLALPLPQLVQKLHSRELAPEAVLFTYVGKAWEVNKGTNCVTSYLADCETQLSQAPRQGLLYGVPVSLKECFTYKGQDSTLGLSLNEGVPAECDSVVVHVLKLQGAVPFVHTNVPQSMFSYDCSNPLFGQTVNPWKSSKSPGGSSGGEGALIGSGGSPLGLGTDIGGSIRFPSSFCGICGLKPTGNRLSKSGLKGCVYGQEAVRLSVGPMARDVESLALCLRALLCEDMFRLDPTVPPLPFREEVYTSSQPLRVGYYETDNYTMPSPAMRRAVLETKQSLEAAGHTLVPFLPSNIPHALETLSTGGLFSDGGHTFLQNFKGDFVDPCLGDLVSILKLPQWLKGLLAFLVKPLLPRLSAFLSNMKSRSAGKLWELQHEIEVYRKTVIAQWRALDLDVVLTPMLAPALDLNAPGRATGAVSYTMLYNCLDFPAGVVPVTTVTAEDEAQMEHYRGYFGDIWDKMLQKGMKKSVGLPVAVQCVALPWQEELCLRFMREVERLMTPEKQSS
Protocol: A. Transfection of Cells with Human FAAH
(§1) A 10-cm tissue culture dish with a confluent monolayer of SK-N-MC cells was split 2 days (d) prior to transfection. Using sterile technique, the media was removed and the cells were detached from the dish by the addition of trypsin. One fifth of the cells were then placed onto a new 10-cm dish. Cells were grown in a 37° C. incubator with 5% CO2 in Minimal Essential Media Eagle with 10% Fetal Bovine Serum. After 2 d, cells were approximately 80% confluent. These cells were removed from the dish with trypsin and pelleted in a clinical centrifuge. The pellet was re-suspended in 400 μL complete media and transferred to an electroporation cuvette with a 0.4 cm gap between the electrodes. Supercoiled human FAAH cDNA (1 μg) was added to the cells and mixed. The voltage for the electroporation was set at 0.25 kV, and the capacitance was set at 960 μF. After electroporation, the cells were diluted into complete media (10 mL) and plated onto four 10-cm dishes. Because of the variability in the efficiency of electroporation, four different concentrations of cells were plated. The ratios used were 1:20, 1:10, and 1:5, with the remainder of the cells being added to the fourth dish. The cells were allowed to recover for 24 h before adding the selection media (complete media with 600 μg/mL G418). After 10 d, dishes were analyzed for surviving colonies of cells. Dishes with well-isolated colonies were used. Cells from individual colonies were isolated and tested.
(§2) The assay mixture consisted of 50 μL of the cell homogenate, 10 μL of the test compound, and 40 μL of anandamide [1-3H-ethanolamine] (^3H-AEA, Perkin-Elmer, 10.3 Ci/mmol), which was added last, for a final tracer concentration of 80 nM. The reaction mixture was incubated at rt for 1 h. During the incubation, 96-well Multiscreen filter plates (catalog number MAFCNOB50; Millipore, Bedford, Mass., USA) were loaded with 25 μL of activated charcoal (Multiscreen column loader, catalog number MACL09625, Millipore) and washed once with 100 μL of MeOH. Also during the incubation, 96-well DYNEX MicroLite plates (catalog number NL510410) were loaded with 100 μL of MicroScint40 (catalog number 6013641, Packard Bioscience, Meriden, Conn., USA). After the 1 h incubation, 60 μL of the reaction mixture were transferred to the charcoal plates, which were then assembled on top of the DYNEX plates using Centrifuge Alignment Frames (catalog number MACF09604, Millipore). The unbound labeled ethanolamine was centrifuged through to the bottom plate (5 min at 2000 rpm), which was preloaded with the scintillant, as described above. The plates were sealed and left at rt for 1 h before counting on a Hewlett Packard TopCount.
(§3) Where activity is shown as greater than (>) a particular value, the value is the solubility limit of the compound in the assay medium or the highest concentration tested in the assay.

Rat FAAH-1 = biological target: T2, Rat FAAH-1 (Rattus norvegicus, UniProt P97612); test: Rat FAAH-1 assay (Assay Method 2), 3H-anandamide hydrolysis in cell homogenate; format: biochemical
T2 construct: expressed in transfected cells
T2 sequence (P97612 1-579): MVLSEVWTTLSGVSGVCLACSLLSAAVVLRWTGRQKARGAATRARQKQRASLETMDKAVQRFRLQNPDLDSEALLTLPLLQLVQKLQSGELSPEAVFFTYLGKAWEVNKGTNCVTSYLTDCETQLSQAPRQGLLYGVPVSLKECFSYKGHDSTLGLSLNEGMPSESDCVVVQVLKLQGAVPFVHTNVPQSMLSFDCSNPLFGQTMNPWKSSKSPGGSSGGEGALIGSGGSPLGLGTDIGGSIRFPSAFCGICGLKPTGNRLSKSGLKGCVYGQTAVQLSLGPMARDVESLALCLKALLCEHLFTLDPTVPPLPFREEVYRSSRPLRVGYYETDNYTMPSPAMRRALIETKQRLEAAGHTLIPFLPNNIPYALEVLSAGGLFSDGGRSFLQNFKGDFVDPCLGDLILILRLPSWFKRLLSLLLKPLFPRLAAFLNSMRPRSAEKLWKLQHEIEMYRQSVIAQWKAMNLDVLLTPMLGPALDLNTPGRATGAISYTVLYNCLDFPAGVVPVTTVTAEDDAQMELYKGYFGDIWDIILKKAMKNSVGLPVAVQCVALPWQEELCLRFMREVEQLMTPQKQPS
Protocol: A. Transfection of Cells with Rat FAAH-1
as §1, with “rat” for “human”
as §2, with “[1-^3H-ethanolamine]” for “[1-3H-ethanolamine]”
as §3

Work on `N[C@@H](CNc1cc(-c2ccc(Cl)c(Cl)c2)ncn1)c1ccccc1` [Example 16, (1R)—N^2-[6-(3,4-Dichlorophenyl)pyrimidin-4-yl]-1-phenylethane-1,2-diamine hydrochloride acid salt] yielded an IC50 (FAAH) of 90 nM and an IC50 (Rat FAAH-1) of 500 nM.
`N[C@@H](CNc1cc(-c2ccc(Cl)c(C(F)(F)F)c2)ncn1)c1ccccc1` [Example 17, (1R)—N^2-{6-[4-Chloro-3-(trifluoromethyl)phenyl]pyrimidin-4-yl}-1-phenylethane-1,2-diamine hydrochloride acid salt] gave an IC50 (FAAH) of 250 nM and an IC50 (Rat FAAH-1) of 900 nM.
For `N[C@@H](CNc1cc(-c2cccc(OC(F)(F)F)c2)ncn1)c1ccccc1` [Example 18, (1R)-1-Phenyl-N^2-{6-[3-(trifluoromethoxy)phenyl]pyrimidin-4-yl}ethane-1,2-diamine hydrochloride acid salt], the IC50 (FAAH) was 920 nM and the IC50 (Rat FAAH-1) was > 10000 nM.
Compound `CCOc1ccc(-c2cc(NC[C@H](N)c3ccccc3)ncn2)cc1` [Example 19, (1R)—N^2-[6-(4-Ethoxyphenyl)pyrimidin-4-yl]-1-phenylethane-1,2-diamine hydrochloride acid salt] has an IC50 (FAAH) of 70 nM and an IC50 (Rat FAAH-1) of 1000 nM.
For `N[C@@H](CNc1cc(-c2ccc(OCC(F)(F)F)cc2)ncn1)c1ccccc1` [Example 20, (1R)-1-Phenyl-N^2-{6-[4-(2,2,2-trifluoroethoxy)phenyl]pyrimidin-4-yl}ethane-1,2-diamine hydrochloride acid salt], the IC50 (FAAH) was 130 nM and the IC50 (Rat FAAH-1) was 2000 nM.
For `N[C@@H](CNc1cc(-c2ccc(OCC(F)(F)F)c(F)c2)ncn1)c1ccccc1` [Example 21, (1R)—N^2-{6-[3-Fluoro-4-(2,2,2-trifluoroethoxy)phenyl]pyrimidin-4-yl}-1-phenylethane-1,2-diamine hydrochloride acid salt], the IC50 (FAAH) was 77 nM and the IC50 (Rat FAAH-1) was 675 nM.
`CCSc1ccc(-c2cc(NC[C@H](N)c3ccccc3)ncn2)cc1` [Example 22, (1R)—N^2-{6-[4-(Ethylsulfanyl)phenyl]pyrimidin-4-yl}-1-phenylethane-1,2-diamine hydrochloride acid salt] gave an IC50 (FAAH) of 7 nM and an IC50 (Rat FAAH-1) of 240 nM.
For `CN(C)S(=O)(=O)c1ccc(-c2cc(NC[C@H](N)c3ccccc3)ncn2)cc1` [Example 23, 4-(6-{[(2R)-2-Amino-2-phenylethyl]amino}pyrimidin-4-yl)-N,N-dimethylbenzenesulfonamide hydrochloride acid salt], the IC50 (FAAH) was 113 nM and the IC50 (Rat FAAH-1) was 1600 nM.
For `N[C@@H](CNc1cc(-c2ccc3c(c2)OC(F)(F)O3)ncn1)c1ccccc1` [Example 24, (1R)—N^2-[6-(2,2-Difluoro-1,3-benzodioxol-5-yl)pyrimidin-4-yl]-1-phenylethane-1,2-diamine hydrochloride acid salt], the IC50 (FAAH) was 270 nM and the IC50 (Rat FAAH-1) was 1000 nM.
For `N[C@@H](CNc1cc(-c2cc3cc(OC(F)(F)F)ccc3s2)ncn1)c1ccccc1` [Example 25, (1R)-1-Phenyl-N^2-{6-[5-(trifluoromethoxy)-1-benzothiophen-2-yl]pyrimidin-4-yl}ethane-1,2-diamine hydrochloride acid salt], the IC50 (FAAH) was 80 nM and the IC50 (Rat FAAH-1) was 370 nM.
With `O=C(N[C@@H](CNc1cc(-c2ccc(C(F)(F)F)c(Cl)c2)ncn1)c1ccccc1)C(F)(F)F` [Example 26, N-[(1R)-2-({6-[3-chloro-4-(trifluoromethyl)phenyl]pyrimidin-4-yl}amino)-1-phenylethyl]-2,2,2-trifluoroacetamide] the IC50 (FAAH) was 1600 nM and the IC50 (Rat FAAH-1) was > 10000 nM.
In the case of `N[C@@H](CNc1cc(-c2ccc(C(F)(F)F)c(Cl)c2)ncn1)c1ccc(F)cc1` [Example 27, (1R)—N^2-[6-(3-Chloro-4-trifluoromethyl-phenyl)-pyrimidin-4-yl]-1-(4-fluoro-phenyl)-ethane-1,2-diamine], the IC50 (FAAH) is reported as 33 nM and the IC50 (Rat FAAH-1) is reported as 60 nM.
`N[C@H](CNc1cc(-c2ccc(C(F)(F)F)c(Cl)c2)ncn1)c1ccc(F)cc1` [Example 28, (1S)—N^2-[6-(3-Chloro-4-trifluoromethyl-phenyl)-pyrimidin-4-yl]-1-(4-fluoro-phenyl)-ethane-1,2-diamine] gave an IC50 (FAAH) of 600 nM and an IC50 (Rat FAAH-1) of 900 nM.
For `N[C@H](CNc1cc(-c2ccc(C(F)(F)F)c(Cl)c2)ncn1)c1ccc(C(F)(F)F)cc1` [Example 29, (1S)—N^2-[6-(3-Chloro-4-trifluoromethyl-phenyl)-pyrimidin-4-yl]-1-(4-trifluoromethyl-phenyl)-ethane-1,2-diamine], the IC50 (FAAH) was 1400 nM and the IC50 (Rat FAAH-1) was 1700 nM.
With `N[C@@H](CNc1cc(-c2ccc(C(F)(F)F)c(Cl)c2)ncn1)c1ccc(C(F)(F)F)cc1` [Example 30, (1R)—N^2-[6-(3-Chloro-4-trifluoromethyl-phenyl)-pyrimidin-4-yl]-1-(4-trifluoromethyl-phenyl)-ethane-1,2-diamine] the IC50 (FAAH) was 160 nM and the IC50 (Rat FAAH-1) was 52 nM.
